Measurements reported in patent US20080206198A1, “Compounds and methods for pharmico-gene therapy of epithelial sodium channel associated disorders” (priority 2003, published 2008).
Peptide text beside a SMILES is read from it. * marks the point of attachment. Cbz = O=C(OCc1ccccc1)*

Columns and labels:
Huh-7 cells = assay: AAV2 FLAG-Luc transduction of Huh-7 cells; assay type: cell-based; conditions: 20 to 80 μM
From the text: A. To screen for agents that enhance rAAV transduction, any number of cells can be used. A range of concentrations of the agent to be tested can be determined based on, for instance desirable profiles of the agent, desirable toxicity profiles of the agent and/or concentration of the agents employed in vivo. The usefulness of the cell type chosen for the screen can be confirmed by testing compounds, e.g., proteasome inhibitors such as LLnL and ZLL which are known to increase rAAV transduction. For example, a AAV2 FLAG-Luc vector was employed to transduce HeLa, ferret fibroblasts, IB3 and Huh (liver) cells in the presence or absence of the proteasome inhibitor MG132. MG132 was confirmed to enhance AAV transduction in all cell types tested: HeLa cell transduction was enhanced about 500-fold at 80 μM, and 200-fold at 40 μM, MG132; ferret fibroblast cell transduction was enhanced about 200-fold at 20 μM, and 17-fold at 4 μM, MG132; IB3-1 cell transduction was enhanced about 30 to 70-fold at 20 to 80 μM MG132; and Huh-7 cell transduction was enhanced about 15-fold at 20 to 80 μM MG132. There was no difference in rAAV transduction efficiency in HeLa cells when either DMSO or ETOH was used as a vehicle for MG132. B. HeLa cells were selected to screen for additional agents that enhance rAAV transduction, although any cell strain or line; or primary cells, may be employed. […]

mouse lung = assay: AV2.RSVlucCap5 nasal aspiration in mice with Z-LLL and/or doxorubicin; assay type: in vivo; conditions: 200 μM
Description: To determine in vivo transduction efficiency of AV2.RSVlucCap5, mice were infected with 6×10^10 particles of AV2.RSVlucCap5 by nasal aspiration alone (control) or in combination with 200 μM Z-LLL, 200 μM doxorubicin or 200 μM Z-LLL and 200 μM doxorubicin (12 mice per group). Co-administration of Z-LLL induced whole lung luciferase expression 17.2- and 2.1-fold at 14 (2 weeks) and 42 (6 weeks) days post-infection, respectively.

ENaC = assay: Amiloride-sensitive Isc time course in polarized CuFi epithelia; assay type: cell-based, human; conditions: 1 to 14 days
[1] = tested on: polarized human airway epithelial cells; assay type: cell-based
Description: Primary culture of human bronchial epithelia and reagents utilized. Primary human airway epithelial cells were collected by enzymatic digestion of bronchial samples from lung transplants, as previously described (Kondo et al., 1991; Zabner et al., 1996). Isolated primary airway cells were seeded at a density of 5×10^5 cells/cm^2 onto collagen-coated Millicell-HA culture inserts (Millipore Corp., Bedford, Mass.). Primary cultures were grown at the air-liquid interface for more than 2 weeks, by which time differentiation into a mucociliary epithelium occurs. The culture medium, used to feed only the basolateral side of the cells, contained 49% DMEM, 49% Ham's F12 and 2% Ultraser G (BioSepra, Cedex, France). Dimethyl Sulphoxide (DMSO), camptothecin (Camp), etoposide (Etop), aphidicolin (Aphi), hydroxyurea (HU) and genistein (Geni) were purchased from Sigma (St. Louis, Mo.). Tripeptidyl aldehyde proteasome inhibitors N-Acetyl-L-Leucyl-L-Leucyl-Norleucine (LLnL) and benzyloxycarbonyl-L-leucyl-L-leucyl-L-leucinal (Z-LLL) were purchased from Calbiochem-Novabiochem Corporation (La Jolla, Calif.). Ubiquitin ligase (E3) inhibitors were obtained from Bachem Bioscience Inc. (King of Prussia, Pa.). Anti-AAV capsid monoclonal antibody (Anti-VP1, 2 and 3) was purchased from American Research Products (Belmont, Mass.) and anti-ubiquitin antibody was purchased from Santa Cruz Biotechnology Inc. (Santa Cruz, Calif.).
Transduction of polarized airway epithelial cells and primary human fibroblasts. rAAV infection of fully differentiated bronchial cells was performed as described in Duan et al. (1998). For infections from the apical surface of the airway cells, 5 μl rAAV was mixed with 50 μl of culture media and applied directly onto the apical compartment of Millicell inserts (MOI=10,000 particles/cell). During apical infection, the basolateral side of the Millicell was continuously bathed in culture media. Gene transfer to the basal side was performed by inverting Millicell inserts and applying viral vector to the bottom of the supporting filter membrane in a 50 μl volume for 2 hours. Subsequently, Millicell inserts were returned to the upright position, in the continued presence of the original viral inoculum plus an additional 450 μl of media. For both apical and basolateral infections, rAAV containing media was removed after 24 hours and replaced with either fresh culture media (for the basal side) or exposed to air (for the apical side). To test the effect of different agents on the efficiency of AAV transduction in polarized airway cells, 1 μl of each solution was mixed with AAV prior to infection of airway epithelia. Agents were usually presented during the 24 hours AAV infection period unless indicated otherwise. Most of the agents were dissolved in DMSO except for hydroxyurea (dissolved in phosphate buffered saline), H-Leu-Ala-OH (dissolved in 0.9% glacial acetic acid) and H-His-Ala-OH (dissolved in 50% methanol). The working concentrations of the agents were as follows: 0.1 μM camptothecin, 10 μM etoposide, 5 μg/ml aphidicolin, 40 mM hydroxyurea, 50 μM genistein, 40 μM LLnL and 4 μM Z-LLL. When the ubiquitin ligase (E3) inhibitors (H-Leu-Ala-OH and H-His-Ala-OH) were used, airway cells were pretreated with a combination of both inhibitors at a final concentration of 2 mM for 60 minutes prior to infection, followed by the continued presence of inhibitor (0.2 mM) during the entire 24 hours infection period from the basolateral surface. Studies involving EGTA treatment were performed by transiently treating the apical membrane of polarized airway epithelia with 3 mM EGTA in water for 10 minutes (Duan et al., 1998). Following hypotonic EGTA treatment, cultures were washed twice with culture medium and infected with rAAV in the presence or absence of 40 μM LLnL. Human primary fibroblast cells (P4) were maintained in 10% fetal bovine serum (FBS), 1% penicillin and streptomycin, and 89% DMEM. […]

[2] = tested on: polarized human airway epithelial cultures; assay: AV2.RSVluc and AV2.RSVlucCap5 transduction of polarized human airway epithelial cultures; assay type: cell-based; conditions: virus applied to the apical surface
From the text: To better understand serotype-specific differences in airway transduction, the effect of proteasome inhibitors on rAAV-2 and rAAV-5 transduction in polarized human airway epithelial cultures and mouse lung was examined (FIGS. 2 and 6).

Compound: CC(C)C[C@@H](C=O)NC(=O)[C@H](CC(C)C)NC(=O)[C@H](CC(C)C)NC(=O)OCc1ccccc1 [Z-LLL, N-carbobenzoxyl-L-leucinyl-L-leucinyl-L-leucinal] (Cbz-Leu-Leu-Leu-aldehyde)
- enhancement of Huh-7 cell transduction (Huh-7 cells): about 15 fold
- induction of whole lung luciferase expression (mouse lung; 14 days (2 weeks) post-infection): 17.2 fold
- induction of whole lung luciferase expression (mouse lung; 42 days (6 weeks) post-infection): 2.1 fold

Compound: COc1cccc2c1C(=O)c1c(O)c3c(c(O)c1C2=O)C[C@@](O)(C(=O)CO)C[C@@H]3O[C@H]1C[C@H](N)[C@H](O)[C@H](C)O1 [doxorubicin]
- ENaC Isc time course (ENaC): gradual decline in ENaC Isc

Compound: N-acetyl-L-leucinyl-L-leucinal-L-norleucinal [LLnL]
- augmentation in transgene expression ([1]; applied to the serosal surface along with rAAV, 2 days post infection, 40 μM LLnL): greater than 200 fold
- time of peak augmentation in AAV transduction ([1]; co-administration with rAAV to the mucosal surface): 22 days post-infection
- toxicity of continual administration ([1]; continual administration after basolateral infection): toxic to cells
- time of transient peak in gene expression ([1]; rAAV infection from the serosal surface): 72 hours post-infection
- increase in AV2.RSVlucCap5 transduction [2]: 12 fold
